Test results reported in patent US20170348330A1, “ANTIVIRAL COMPOUND AND ANALOGUES THEREOF FOR TREATMENT OR PREVENTION OF FLAVIVIRUS DENGUE/ZIKA INFECTIONS” (Canopus BioPharma Incorporated, priority 2016, published 2017).
Where “and” joins values, the source holds several entries; their conditions need not be identical. Identical values can stand only once. Like-named read-outs stand apart in the source and are kept apart here.

What was measured:
[1] = tested on: Zika virus; assay: ZIKA anti-viral in-vitro testing in VERO cells (Naftol blue-black staining, absorbance at 450 nm); conditions: for Absorbance at 450 nm: Zika MOI 0.1, VERO cells, 72 hours, threshold 0.382, replicate wells
Description: ZIKA Anti-Viral In-Vitro Testing and Antiviral Assay Report:
Controls: Medium with DMSO at 1% start concentration; Zika virus for infection at 0.1 MOI; VERO cells on VP medium (serum-free).
Procedure: Antivirals were diluted as information provided to stock concentrations of 10 mM in 100% DMSO.
• 1—VERO cells in VP were inoculated in 200 μL/well at 5.0×10^4 cells/mL in 96-well plates. • 2—Incubated at 37° C. for 48 hours. • 3—With 80% confluence the test was performed as follows: culture medium was changed for 150 μL of fresh VP in columns 2 to 10. Antivirals diluted at 100 μM in VP medium were placed in the column 1 (300 μL). Serial dilutions from 1 to 10 were performed by passing 150 μL of medium (1:2). Plates were incubated at 37° C. for 2 hours. Zika virus diluted in VP medium to the final infection ration desired of MOI 0.1 in 100 μL of VP was added to wells. • 4—Plates were incubated for 72 hours and checked each 24 hours for cytotoxicity or cytopathic effect. • 5—Plates were washed and stained with Naftol blue-black. Absorbance was measured at 450 nm.
DMSO cytotoxicity Antiviral cytotoxicity Primary Threshold for virus inhibition. Absorbance above 0.382

[2] = cited from earlier work
[3] = cited from earlier work; for mean Cmax concentrations: healthy subjects
[4] = Eplerenone PK and concentrations reported in humans; assay type: in vivo, human; conditions: for Cmax: human, plasma, po
Description: Clinical data: Eplerenone PK and concentrations reported in humans:
Referring now to FIG. 5 and FIG. 6, Eplerenone Cmax concentrations achieved in normal subjects is illustrated, as well as subjects with varying degrees of renal impairment after single and multiple doses of Eplerenone given orally.
The charts illustrate the feasibility of achieving anti-viral Cmax concentrations using Eplerenone in human and show Eplerenone plasma concentration vs. time curves.
In multiple dose studies, it is shown that Eplerenone steady state concentrations may be reached within 4 days. […] This preferred embodiment may be adjusted according to the specific conditions of the human subject.

[5] = laboratory animals; cited from earlier work
[6] = tested on: dengue; conditions: mouse model; cited from earlier work
[7] = tested on: dengue; conditions: cited from earlier work
[8] = tested on: dengue; conditions: by inhibiting the dengue 2′-O-methyltransferase NS5 domain; cited from earlier work

Structure (SMILES) | Absorbance at 450 nm ([1]; 0.19 μM) | Absorbance at 450 nm ([1]; 0.78 μM) | Absorbance at 450 nm ([1]; 1.56 μM) | Absorbance at 450 nm ([1]; 3.12 μM) | Absorbance at 450 nm ([1]; 6.25 μM) | Absorbance at 450 nm ([1]; 12.5 μM) | Absorbance at 450 nm ([1]; 25 μM) | Absorbance at 450 nm ([1]; 50 μM) | also measured
CC(=O)S[C@@H]1CC2=CC(=O)CC[C@]2(C)[C@H]2CC[C@@]3(C)[C@@H](CC[C@@]34CCC(=O)O4)[C@H]12 [Spironolactone] | 0.22 and 0.2 and 0.183 and 0.095 | 0.328 and 0.23 and 0.168 and 0.063 | 0.328 and 0.318 and 0.2 and 0.069 | 0.359 and 0.317 and 0.223 and 0.06 | 0.358 and 0.307 and 0.263 and 0.097 | 0.338 and 0.342 and 0.234 and 0.092 | 0.255 and 0.257 and 0.214 and 0.076 | 0.079 and 0.082 and 0.074 and 0.047 | –
COC(=O)[C@@H]1CC2=CC(=O)CC[C@]2(C)[C@@]23O[C@@H]2C[C@@]2(C)[C@@H](CC[C@@]24CCC(=O)O4)[C@H]13 [Eplerenone, pregn-4-ene-7,21-dicarboxylic acid, 9,11-epoxy-17-hydroxy-3-oxo, γ-lactone, methyl ester (7α, 11α, 17α)] | 0.449 and 0.441 and 0.468 and 0.469 | 0.433 and 0.434 and 0.432 and 0.428 | 0.369 and 0.466 and 0.453 and 0.443 | 0.4 and 0.423 and 0.453 and 0.441 | 0.376 and 0.448 and 0.411 and 0.397 | 0.334 and 0.333 and 0.373 and 0.341 | 0.29 and 0.288 and 0.291 and 0.271 | 0.217 and 0.238 and 0.209 and 0.182 | Pregnancy category ([2]; animal reproduction studies failed to demonstrate a risk to the fetus): category B; Tolerability ([2]; human): generally well tolerated; mean Cmax concentrations ([3]; dose 100 mg orally): 1720 ng/mL; mean Cmax concentrations ([3]; single dose of 50 mg orally): 1173 ng/mL; Accumulation: steady state Cmax compared with single dose administration ([3]; multiple dose studies): no significant accumulation; Time to reach steady state concentrations ([3]; multiple dose studies): ≤ 4 days; Peak plasma concentrations (Cmax) ([3]; therapeutic doses of oral Eplerenone (100 mg), human): up to 1720 ng/ml; Cmax relative to in-vitro concentration of column#9 ([…]) ([4]; Cmax […] after 100 mg oral vs in-vitro […]): 10 times; Cmax ([4]; 50 mg, healthy subjects, single dose of 50 mg orally, read-out: mean Cmax concentrations, equivalent): 2.8 µM; Cmax ([4]; 100 mg, healthy subjects, dose 100 mg orally, read-out: mean Cmax concentrations, equivalent): 4.1 µM; Cmax ([4]; 100 mg, therapeutic doses of oral Eplerenone (100 mg), read-out: Peak plasma concentrations (Cmax), equivalent): ≤ 4.1 µM; In-vitro concentrations showing anti-viral activity against Zika virus ([1]; columns 6-10 of the report, comparable to Butantan control): 0.19 to 3.12 µM; Dose with noticeable risk of foetal abnormalities [5]: over 1000 times the recommended daily dose
COCCOC(=O)C1=C(C)NC(C)=C(C(=O)OC(C)C)C1c1cccc([N+](=O)[O-])c1 (centres unmarked) [Nimodipine] | 0.206 and 0.321 and 0.378 and 0.354 | 0.142 and 0.293 and 0.459 and 0.396 | 0.202 and 0.387 and 0.46 and 0.397 | 0.235 and 0.468 and 0.451 and 0.415 | 0.263 and 0.363 and 0.451 and 0.395 | 0.276 and 0.282 and 0.347 and 0.305 | 0.21 and 0.224 and 0.271 and 0.217 | 0.091 and 0.113 and 0.117 and 0.092 | –
NC(=O)c1ncn([C@@H]2O[C@H](CO)[C@@H](O)[C@H]2O)n1 [Ribavirin] | – | – | – | – | – | – | – | – | Protection against dengue [6]: did not show protection; Adverse effects in dengue animal models ([7]; mouse model or rhesus monkey model (species not specified)): induced anemia and thrombocytosis; Protection against dengue ([7]; rhesus monkey model): did not show protection; Activity against dengue in tissue culture [8]: works against dengue in tissue culture
